Results: patent US10759783B2, “Biaryl inhibitors of Bruton'S tyrosine kinase” (BIOGEN MA INC., priority 2013, dated 2020)

What was measured:
[1] = target: BTK (phospho-BTK) in human whole blood (Homo sapiens, UniProt Q06187); test: In vitro PD assay in human whole blood (pBTK assay)
[2] = target: T1, BTK enzyme (Homo sapiens, UniProt Q06187); test: In vitro BTK kinase assay: BTK-POLYGAT-LS assay; format: biochemical; settings: ATP 10 μM, read-out: IC50 (10uMATP)
T1 construct: purchased Upstate 14-552
In short: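 Human BTK activity was measured with final 10 μM ATP and 100 nM polyGAT substrate in pH 7.5 Tris buffer with 10 mM MgCl2, DTT, Triton X-100 and casein.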

BTK (phospho-BTK) in human whole blood, sequence (Q06187 whole entry): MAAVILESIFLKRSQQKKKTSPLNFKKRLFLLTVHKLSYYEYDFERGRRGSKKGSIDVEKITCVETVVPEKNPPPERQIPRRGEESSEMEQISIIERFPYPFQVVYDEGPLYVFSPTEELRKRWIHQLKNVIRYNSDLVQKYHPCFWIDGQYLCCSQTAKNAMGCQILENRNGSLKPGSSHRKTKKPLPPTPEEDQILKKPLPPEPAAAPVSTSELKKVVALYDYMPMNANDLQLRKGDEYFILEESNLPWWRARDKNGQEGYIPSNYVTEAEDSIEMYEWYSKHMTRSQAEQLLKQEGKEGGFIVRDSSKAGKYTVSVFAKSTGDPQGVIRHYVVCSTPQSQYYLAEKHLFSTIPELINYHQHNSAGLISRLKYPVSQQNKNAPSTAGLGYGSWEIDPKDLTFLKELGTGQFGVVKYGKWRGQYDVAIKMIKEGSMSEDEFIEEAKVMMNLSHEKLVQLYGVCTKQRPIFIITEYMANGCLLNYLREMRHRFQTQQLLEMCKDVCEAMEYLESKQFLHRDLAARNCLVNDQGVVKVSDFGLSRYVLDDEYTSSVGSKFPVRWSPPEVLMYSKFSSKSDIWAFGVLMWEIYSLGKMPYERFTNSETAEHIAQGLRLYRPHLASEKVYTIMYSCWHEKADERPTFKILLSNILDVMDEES
T1 sequence (Q06187 whole entry): as above

| Compound | IC50 [1] [nM] | IC50 [2] [nM] |
| --- | --- | --- |
| Cc1cc(-c2ccnc(Nc3cc4n(n3)CCN(C)C4)n2)ccc1CNC(=O)c1cnc(C(C)(C)C)s1 [Example I-55, 2-(tert-butyl)-N-(2-methyl-4-(2-((5-methyl-4,5,6,7-tetrahydropyrazolo[1,5-a]pyrazin-2-yl)amino)pyrimidin-4-yl)benzyl)thiazole-5-carboxamide] | 1500 to 10000 | < 10 |
| CCN1CCn2nc(Nc3nccc(-c4ccc(CNC(=O)c5cnc(C(C)(C)C)s5)c(C)c4)n3)cc2C1 [Example I-56, 2-(tert-butyl)-N-(4-(2-((5-ethyl-4,5,6,7-tetrahydropyrazolo[1,5-a]pyrazin-2-yl)amino)pyrimidin-4-yl)-2-methylbenzyl)thiazole-5-carboxamide] | 500 to 1500 | < 10 |
| Cc1cc(-c2ccnc(Nc3ccc(N4CCN(C)CC4)cn3)n2)ccc1CNC(=O)c1cnc(C(C)(C)C)s1 [Example I-62, 2-(tert-butyl)-N-(2-methyl-4-(2-((5-(4-methylpiperazin-1-yl)pyridin-2-yl)amino)pyrimidin-4-yl)benzyl)thiazole-5-carboxamide] | 1500 to 10000 | < 10 |
| Cc1cc(-c2cc(Nc3cnn(C)c3)ncn2)ccc1CNC(=O)c1cnc(C(C)(C)C)s1 [Example I-64, 2-(tert-butyl)-N-(2-methyl-4-(6-((1-methyl-1H-pyrazol-4-yl)amino)pyrimidin-4-yl)benzyl)thiazole-5-carboxamide] | 1500 to 10000 | < 10 |
| Cc1cc(-c2cc(Nc3cn(C)cn3)ncn2)ccc1CNC(=O)c1cnc(C(C)(C)C)s1 [Example I-65, 2-(tert-butyl)-N-(2-methyl-4-(6-((1-methyl-1H-imidazol-4-yl)amino)pyrimidin-4-yl)benzyl)thiazole-5-carboxamide] | 500 to 1500 | < 10 |
| Cc1cc(-c2cc(Nc3ccn(C)n3)ncn2)ccc1CNC(=O)c1cnc(C(C)(C)C)s1 [Example I-66, 2-(tert-butyl)-N-(2-methyl-4-(6-((1-methyl-1H-pyrazol-3-yl)amino)pyrimidin-4-yl)benzyl)thiazole-5-carboxamide] | 500 to 1500 | < 10 |
| Cc1cc(-c2cc(Nc3cnn(C)n3)ncn2)ccc1CNC(=O)c1cnc(C(C)(C)C)s1 [Example I-67, 2-(tert-butyl)-N-(2-methyl-4-(6-((2-methyl-2H-1,2,3-triazol-4-yl)amino)pyrimidin-4-yl)benzyl)thiazole-5-carboxamide] | 500 to 1500 | < 10 |
| Cn1cc(Nc2nccc(-c3ccc4c(c3)CCCC4NC(=O)c3cnc(C(C)(C)C)s3)n2)cn1 (stereo not drawn) [Example I-91, 2-(tert-butyl)-N-(6-(2-((1-methyl-1H-pyrazol-4-yl)amino)pyrimidin-4-yl)-1,2,3,4-tetrahydronaphthalen-1-yl)thiazole-5-carboxamide] | 1500 to 10000 | < 10 |
| Cn1cc(Nc2nccc(-c3ccc4c(c3)CCCC4NC(=O)c3cc4c(s3)CCOC4)n2)cn1 (stereo not drawn) [Example I-95, N-(6-(2-((1-methyl-1H-pyrazol-4-yl)amino)pyrimidin-4-yl)-1,2,3,4-tetrahydronaphthalen-1-yl)-6,7-dihydro-4H-thieno[3,2-c]pyran-2-carboxamide] | 500 to 1500 | < 10 |
| Cn1cc(Nc2nccc(-c3ccc4c(c3)NCCC4NC(=O)c3cnc(C(C)(C)C)s3)n2)cn1 (stereo not drawn) [Example I-99, 2-(tert-butyl)-N-(7-(2-((1-methyl-1H-pyrazol-4-yl)amino)pyrimidin-4-yl)-1,2,3,4-tetrahydroquinolin-4-yl)thiazole-5-carboxamide] | 1500 to 10000 | < 10 |
| Cc1cc(-c2ccnc(Nc3cnn(C)c3)n2)ccc1C(CO)NC(=O)c1cnc(C(C)(C)C)s1 (stereo not drawn) [Example I-108, 2-(tert-butyl)-N-(2-hydroxy-1-(2-methyl-4-(2-((1-methyl-1H-pyrazol-4-yl)amino)pyrimidin-4-yl)phenyl)ethyl)thiazole-5-carboxamide] | 1500 to 10000 | < 10 |
| Cc1cc(-c2nc(Nc3cnn(C)c3)ncc2F)ccc1CNC(=O)c1cnc(C(C)(C)C)s1 [Example I-111, 2-(tert-butyl)-N-(4-(5-fluoro-2-((1-methyl-1H-pyrazol-4-yl)amino)pyrimidin-4-yl)-2-methylbenzyl)thiazole-5-carboxamide] | 1500 to 10000 | < 10 |
| Cn1cc(Nc2nccc(-c3ccc(CNC(=O)c4cc5c(s4)CCOC5)c(C(F)(F)F)c3)n2)cn1 [Example I-115, N-(4-(2-((1-methyl-1H-pyrazol-4-yl)amino)pyrimidin-4-yl)-2-(trifluoromethyl)benzyl)-6,7-dihydro-4H-thieno[3,2-c]pyran-2-carboxamide] | 500 to 1500 | < 10 |
| Cn1cc(Nc2nccc(-c3ccc(CNC(=O)c4cnc(C(C)(C)C)s4)c(C(F)(F)F)c3)n2)cn1 [Example I-116, 2-(tert-butyl)-N-(4-(2-((1-methyl-1H-pyrazol-4-yl)amino)pyrimidin-4-yl)-2-(trifluoromethyl)benzyl)thiazole-5-carboxamide] | 500 to 1500 | < 10 |
| Cc1cc(-c2ccnc(Nc3cnn(CCO)c3)n2)ccc1CNC(=O)c1cc2c(s1)CCOC2 [Example I-120, N-(4-(2-((1-(2-hydroxyethyl)-1H-pyrazol-4-yl)amino)pyrimidin-4-yl)-2-methylbenzyl)-6,7-dihydro-4H-thieno[3,2-c]pyran-2-carboxamide] | 500 to 1500 | < 10 |

The next lines start with the values.

| IC50 [1] [nM] | IC50 [2] [nM] | Compound |
| --- | --- | --- |
| < 500 | < 10 | Cc1cc(-c2ccnc(Nc3cnn([C@H]4CC[C@H](C(=O)O)CC4)c3)n2)ccc1CNC(=O)c1cnc(C(C)(C)C)s1 [Example I-49, trans-4-(4-((4-(4-((2-(tert-butyl)thiazole-5-carboxamido)methyl)-3-methylphenyl)pyrimidin-2-yl)amino)-1H-pyrazol-1-yl)cyclohexanecarboxylic acid] |
| < 500 | < 10 | Cc1cc(-c2ccnc(Nc3cnn(CCN)c3)n2)ccc1CNC(=O)c1cnc(C(C)(C)C)s1 [Example I-50, N-(4-(2-((1-(2-aminoethyl)-1H-pyrazol-4-yl)amino)pyrimidin-4-yl)-2-methylbenzyl)-2-(tert-butyl)thiazole-5-carboxamide] |
| 500 to 1500 | < 10 | Cc1cc(-c2ccnc(Nc3cn(C)nc3C)n2)ccc1CNC(=O)c1cnc(C(C)(C)C)s1 [Example I-51, 2-(tert-butyl)-N-(4-(2-((1,3-dimethyl-1H-pyrazol-4-yl)amino)pyrimidin-4-yl)-2-methylbenzyl)thiazole-5-carboxamide] |
| < 500 | < 10 | Cc1cc(-c2ccnc(Nc3cnn(C)c3C)n2)ccc1CNC(=O)c1cnc(C(C)(C)C)s1 [Example I-52, 2-(tert-butyl)-N-(4-(2-((1,5-dimethyl-1H-pyrazol-4-yl)amino)pyrimidin-4-yl)-2-methylbenzyl)thiazole-5-carboxamide] |
| 500 to 1500 | < 10 | Cc1cc(-c2ccnc(Nc3cc4n(n3)CCNC4)n2)ccc1CNC(=O)c1cnc(C(C)(C)C)s1 [Example I-54, 2-(tert-butyl)-N-(2-methyl-4-(2-((4,5,6,7-tetrahydropyrazolo[1,5-a]pyrazin-2-yl)amino)pyrimidin-4-yl)benzyl)thiazole-5-carboxamide] |
| < 500 | < 10 | Cc1cc(-c2cc(Nc3cc4n(n3)CCN(C)C4)ncn2)ccc1CNC(=O)c1cnc(C(C)(C)C)s1 [Example I-63, 2-(tert-butyl)-N-(2-methyl-4-(6-((5-methyl-4,5,6,7-tetrahydropyrazolo[1,5-a]pyrazin-2-yl)amino)pyrimidin-4-yl)benzyl)thiazole-5-carboxamide] |
| < 500 | < 10 | Cc1cc(-c2cc(Nc3ccc(N4CCN(C)CC4)cn3)ncn2)ccc1CNC(=O)c1cnc(C(C)(C)C)s1 [Example I-69, 2-(tert-butyl)-N-(2-methyl-4-(6-((5-(4-methylpiperazin-1-yl)pyridin-2-yl)amino)pyrimidin-4-yl)benzyl)thiazole-5-carboxamide] |
| < 500 | < 10 | Cc1cc(-c2ccnc(Nc3ccc(N4CCN(C)CC4)cn3)c2)ccc1CNC(=O)c1cnc(C(C)(C)C)s1 [Example I-70, 2-(tert-butyl)-N-(2-methyl-4-(2-((5-(4-methylpiperazin-1-yl)pyridin-2-yl)amino)pyridin-4-yl)benzyl)thiazole-5-carboxamide] |
| < 500 | < 10 | Cn1cc(Nc2nccc(-c3cc(Cl)c(CNC(=O)c4cnc(C(C)(C)C)s4)cc3F)n2)cn1 [Example I-118, 2-(tert-butyl)-N-(2-chloro-5-fluoro-4-(2-((1-methyl-1H-pyrazol-4-yl)amino)pyrimidin-4-yl)benzyl)thiazole-5-carboxamide] |
| < 500 | < 10 | Cc1cc(-c2cc(Nc3cc4n(n3)CCN(C)C4)ncn2)ccc1CNC(=O)N1CC(OC(C)C)C1 [Example I-121, 3-isopropoxy-N-(2-methyl-4-(6-((5-methyl-4,5,6,7-tetrahydropyrazolo[1,5-a]pyrazin-2-yl)amino)pyrimidin-4-yl)benzyl)azetidine-1-carboxamide] |
| < 500 | < 10 | Cc1cc(-c2ccnc(Nc3cnn([C@@H]4CCNC4)c3)n2)ccc1CNC(=O)c1cnc(C(C)(C)C)s1 [Example I-122, (R)-2-(tert-butyl)-N-(2-methyl-4-(2-((1-(pyrrolidin-3-yl)-1H-pyrazol-4-yl)amino)pyrimidin-4-yl)benzyl)thiazole-5-carboxamide] |
| < 500 | < 10 | Cc1cc(-c2ccnc(Nc3cnn([C@@H]4CCN(C)C4)c3)n2)ccc1CNC(=O)c1cnc(C(C)(C)C)s1 [Example I-123, (R)-2-(tert-butyl)-N-(2-methyl-4-(2-((1-(1-methylpyrrolidin-3-yl)-1H-pyrazol-4-yl)amino)pyrimidin-4-yl)benzyl)thiazole-5-carboxamide] |
